# In patent US6444688B1, “Compounds and compositions with nitrogen-containing non-basic side chains” (Eli Lilly and Company, priority 1995, dated 2002):
# Columns and labels:
# [1] = tested on: ovariectomized (OVX) rats; experiment: Four day dosing regimen, post-menopausal rat model: wet uterine weight; assay type: in vivo, Sprague Dawley rats; conditions: OVX rats, oral, daily for 4 days
# Procedure: (§1) Animals were dosed daily for 4 days. […] A blood sample was collected by cardiac puncture.
# [2] = tested on: uterine eosinophil peroxidase activity; experiment: Uterine eosinophil peroxidase (EPO) assay, four day dosing; assay type: in vivo, Sprague Dawley rats; conditions: OVX rats, oral, daily for 4 days
# Procedure: as §1
# [3] = tested on: ovariectomized (OVX) rats; experiment: Serum cholesterol analysis, four day dosing; assay type: in vivo, Sprague Dawley rats; conditions: Rattus norvegicus, po, 96 h, OVX rats, oral, daily for 4 days, read-out: Serum Cholesterol (% dec. OVX)
# Procedure: as §1
# Blood samples were allowed to clot at room temperature for 2 hours, and serum was obtained following centrifugation for 10 minutes at 3000 rpm. Serum cholesterol was determined using a Boehringer Mannheim Diagnostics high performance cholesterol assay. Briefly the cholesterol was oxidized to cholest-4-en-3-one and hydrogen peroxide. The hydrogen peroxide was then reacted with phenol and 4-aminophenazone in the presence of peroxidase to produce a p-quinone imine dye, which was read spectrophotemetrically at 500 nm. Cholesterol concentration was then calculated against a standard curve. The entire assay was automated using a Biomek Automated Workstation.
# [4] = tested on: MCF-7 breast adenocarcinoma cells; experiment: MCF-7 proliferation assay (tritiated thymidine); assay type: cell-based; conditions: Homo sapiens, MCF7; MCF-7 cells, 48 hours with drug, tritiated thymidine pulse 4 hours; read-out: ED50 (the source's name)
# Procedure: MCF-7 breast adenocarcinoma cells (ATCC HTB 22) were maintained in MEM (minimal essential medium, phenol red-free, Sigma, St. Louis, Mo.) supplemented with 10% fetal bovine serum (FBS) (V/V), L-glutamine (2 mM), sodium pyruvate (1 mM), HEPES {(N-[2-hydroxyethyl]piperazine-N′-[2-ethanesulfonic acid]10 mM}, non-essential amino acids and bovine insulin (1 μg/ml) (maintenance medium). Ten days prior to assay, MCF-7 cells were switched to maintenance medium supplemented with 10% dextrancoated charcoal stripped fetal bovine serum (DCC-FBS) assay medium) in place of 10% FBS to deplete internal stores of steroids. MCF-7 cells were removed from maintenance flasks using cell dissociation medium (Ca++/Mg++ free HBSS (phenol red-free) supplemented with 10 mM HEPES and 2 mM EDTA). Cells were washed twice with assay medium and adjusted to 80,000 cells/ml. Approximately […] (8,000 cells) were added to flat-bottom microculture wells (Costar 3596) and incubated at 37° C. in a 5% CO2 humidified incubator for 48 hours to allow for cell adherence and equilibration after transfer. Serial dilutions of drugs or DMSO as a diluent control were prepared in assay medium and […] to triplicate microcultures followed by […] assay medium for a final volume of […]. […] Samples were counted by liquid scintillation. […]
structure (smiles),measurement,setting,value
COc1ccc(-c2sc3cc(OC)ccc3c2C(=O)c2ccc(OCC(=O)N3CCCCC3)cc2)cc1 [Compound 7],Uterine Weight (% inc. OVX),[1]; dose 0.1 mg/kg,−0.5 % inc. OVX
same,Uterine Weight (% inc. OVX),[1]; dose 1 mg/kg,−16.2 % inc. OVX
same,Uterine Weight (% inc. OVX),[1]; dose 10 mg/kg,8.4 % inc. OVX
same,Uterine EPO (Vmax),[2]; dose 0.1 mg/kg,5.2 Vmax
same,Uterine EPO (Vmax),[2]; dose 1 mg/kg,3.7 Vmax
same,Uterine EPO (Vmax),[2]; dose 10 mg/kg,4.7 Vmax
same,inhibition in vivo at 0.1 mg/kg,[3]; dose 0.1 mg/kg,3.4%
same,inhibition in vivo at 1 mg/kg,[3]; dose 1 mg/kg,14.6%
same,inhibition in vivo at 10 mg/kg,[3]; dose 10 mg/kg,-41.9%
same,EC50,[4],> 1 µM
